Here are results for four compounds from US7405051B2, “Method of screening antiplatelet agents” (Astellas Pharma Inc., priority 2000, dated 2008).

Each structure is given as a SMILES string.

Experiment [1] concerns ADP-induced platelet aggregation of human PRP. Nature of the experiment: ADP-induced human platelet aggregation in platelet-rich plasma (aggregometer). The settings on record: sodium citrate, ADP 20 to 200 μmol/L added as inducer, FIGS. 1 and 2. Format: cell-based. The method, then:
Blood was collected from a healthy person (adult) by using 1/10 volume of sodium citrate, and then platelet-rich plasma(PRP) was prepared in accordance with a method of De Marco et al. (J. Clin. Invest., 77, 1272-1277, 1986). The PRP was used after preparing it to 3×10^8 cells/mL by using an automatic blood cell counter (MEK6258; Nihon Kohden Corporation). As an inducer of aggregation, ADP which is a product manufactured by MC Medical Corporation was used.
The platelet aggregation was measured by using an aggregometer (MCM Hema Tracer 212; MC Medical Corpration). […] Changes of a transmitted light were recorded for 10 minutes, and then an aggregation inhibition (%) was calculated from the maximum aggregation rate.
The data for 2MeSAMP (FIG. 1) are represented by the “average” of the experiment results obtained by using two volunteers. […] The inhibitory strength was dependent on the concentration of ADP as an inducer.

For experiment [2], the target named is T1, HORK3 protein (human ADP receptor P2TAC) (Homo sapiens, UniProt Q9H244). Nature of the experiment: Forskolin-stimulated cAMP production in C6-15 cell expressing HORK3 protein (cAMP HTRF). The settings on record: C6-15 cells expressing HORK3; for EC50: 1 μmol/L forskolin, 37° C. 30 minutes, read-out: EC50, responsiveness against the HORK3 protein (decrease of cAMP produced by forskolin). Format: cell-based.
Experimental: The C6-15 cells expressing the HORK3 protein were seeded on a 96-well plate (1×10^4 cells/well). After culturing for 1 day, cells were treated with a DMEM medium containing 1 mmol/L 3-isobutyl-1-methylxanthine (manufactured by Sigma) and 0.1% BSA for 10 minutes, and then the combination of 1 μmol/L forskolin (manufactured by Wako Pure Chemical Industries) and 2MeSADP (a final concentration=1×10^−12 to 1×10^−7 mol/L), or the combination of 1 μmol/L forskolin and ADP (a final concentration=1×10^−10 to 1×10^−5 mol/L) was added dropwise. After incubating at 37° C. for 30 minutes, the culture supernatant was discarded, and then cells were dissolved in PBS containing 0.2% Triton X-100.
The amount of cAMP produced in each cell under each condition was measured by using a cAMP HTRF kit (manufactured by CIS bio international) in accordance with a protocol attached thereto. When the amount of cAMP produced by stimulating with 1 μmol/L forskolin alone was regarded as 100%, a concentration-dependent curve for the amount of cAMP in the presence of 2MeSADP or ADP was drawn.
Next, effects of compounds, which are known to suppress the platelet aggregation, on the suppression of the amount of cAMP produced by the forskolin stimulus in the C6-15 cell expressing the HORK3 protein by 2MeSADP were examined. […] After incubating at 37° C. for 30 minutes, the culture supernatant was discarded, and then cells were dissolved in PBS containing 0.2% Triton X-100. The amount of cAMP produced was measured by using the cAMP HTRF kit in accordance with a protocol attached thereto. When the amount of cAMP produced by stimulating with 1 μmol/L forskolin alone was regarded as 0%, and that by stimulating with the combination of 1 μmol/L forskolin and 10 nmol/L 2MeSADP was regarded as 100%, a concentration-dependent curve of each inhibitor was drawn.

The target in experiment [3] is T1, HORK3 protein (human ADP receptor P2TAC). Nature of the experiment: [3H]-2MeSADP binding assay on membrane fraction of C6-15 cell expressing HORK3 protein. Particulars: 1 nmol/L [3H]-2MeSADP; 20 μg membrane fraction; room temperature 2 hours. The text has this:
The C6-15 cells expressing the HORK3 protein prepared in Example 5 were taken and washed, and then suspended in 20 mmol/L Tris-HCl (pH7.4) containing 5 mmol/L EDTA and a protease inhibitor cocktail set (Complete™; manufactured by Boeringer Mannheim). The whole was homogenized by using a POLYTRON, and ultracentrifuged. The pellet was suspended in 50 mmol/L Tris-HCl (pH7.4) containing 1 mmol/L EDTA, 100 mmol/L NaCl, 0.1% BSA, and Complete™ to obtain a membrane fraction.
After [^3H]-2MeSADP (manufactured by Moravek Biochemical) was added to 20 μg of the membrane fraction as a final concentration of 0.25 to 50 nmol/L, and was incubated in 250 μL of 50 mmol/L Tris-HCl (pH7.4) containing 1 mmol/L EDTA, 100 mmol/L NaCl, 0.1% BSA, and Complete™ at room temperature for 1 hour, the whole was collected on a glass filter by using a cell harvester. A microscintillator was added to the glass filter, and then a total amount of binding to the membrane fraction was measured by using a liquid scintillation counter. Further, an amount of non-specific binding to the membrane fraction was measured by adding 2MeSADP (a final concentration=50 μmol/L) in the above assay.
A microscintillator was added to the glass filter, and then radioactivity was measured by using a liquid scintillation counter. Further, radioactivity was measured by not adding the compound and by adding 2MeSADP (a final concentration=10 μmol/L) in the above assay, as a total amount of binding and an amount of non-specific binding, respectively.

For experiment [4], the system named is C6-15 cells transfected with pEF-BOS-dhfr (empty vector) and pEF-BOS-Gqi. In words: Intracellular Ca2+ concentration in control C6-15 cells transfected with empty vector and Gqi. Format: cell-based, rat. Particulars: empty vector plus Gqi control cells; 3x10^-5 to 1x10^-12 mol/L. The method, then: The C6-15 cells were seeded on a 96-well plate (96 well Black/clear bottom plate, collagen I coated; manufactured by BECTON DICKINSON) so that the concentration of cells became 2×10^4 cells/well. After culturing for 48 hours, a gene transfection was carried out by using a transfection reagent (LipofectAMINE 2000; manufactured by GIBCO BRL) and the combination of the plasmid pEF-BOS-dhfr-HORK3 (50 ng/well) and the plasmid pEF-BOS-Gqi (50 ng/well). As a control, a gene transfection was carried out by using the combination of the plasmid pEF-BOS-dhfr (i.e., an empty vector without the HORK3 gene) and the plasmid pEF-BOS-Gqi, instead of the combination of the plasmid pEF-BOS-dhfr-HORK3 and the plasmid pEF-BOS-Gqi. […]
A time course of the change in the intracellular Ca^2+ concentration was measured by using FLIPR (manufactured by Molecular Device). More particularly, after 10 seconds from the beginning of measurement, 2MeSADP or ADP was added to wells to a final concentration of 3×10^−5 mol/L to 1×10^−12 mol/L. After the addition, each fluorescence intensity was measured at an interval of 1 second for 50 seconds, and then at an interval of 6 seconds for 4 minutes. […]

Experiment [5] has as its target T1, HORK3 protein (human ADP receptor P2TAC). Nature of the experiment: Inhibition of forskolin-stimulated cAMP production in CHO cell expressing HORK3 protein. Format: cell-based. Particulars: CHO-dhfr(-) cells expressing HORK3; 3 μmol/L forskolin; 37° C. 30 minutes; read-out: EC50, responsiveness against the HORK3 protein (decrease of cAMP produced by forskolin). The source says: It was found from Example 3 that the ADP receptor was a Gi-coupled receptor, and thus it is expected that the ADP receptor has an activity of suppressing the adenylate cyclase activity. […] In this connection, a dihydrofolate reductase (DHFR; an essential enzyme for de novo synthesis of nucleic acids) defective cell line [CHO-dhfr(−) line] was used in the present example. The plasmid pEF-BOS-dhfr-HORK3 was used as an expression plasmid to be used for expressing the HORK3 protein. The CHO-dhfr(−) line was seeded on each 10 cm-petri dish (1×10^6 cells/dish) by using an αMEM (with nucleic acids) medium. […] As a control, a gene transfection was carried out by using the plasmid pEF-BOS-dhfr (i.e., an empty vector without the HORK3 gene), instead of the plasmid pEF-BOS-dhfr-HORK3. After 24 hours from the gene transfection procedure, the transfected cells were taken and suspended in an αMEM (without nucleic acids) medium containing 100 nmol/L methotrexate (a competitive inhibitor of DHFR; manufactured by Wako Pure Chemical Industries). Each suspension was gradually diluted and reseeded on each 10 cm-petri dish. […] The amount of cAMP produced in each cell under each condition was measured by using the cAMP-EIA system in accordance with a protocol attached thereto.
(In general: cAMP levels reflect the balance of adenylyl cyclase and phosphodiesterase activity.)

In experiment [6] the test system is CHO cell transfected with the empty vector. Nature of the experiment: Forskolin-stimulated cAMP production in control CHO cell transfected with the empty vector. Particulars: 3 μmol/L forskolin. Format: cell-based, Chinese hamster. How it is done: The CHO-dhfr(−) line was seeded on each 10 cm-petri dish (1×10^6 cells/dish) by using an αMEM (with nucleic acids) medium. After culturing for 1 day, a gene transfection was carried out by using a transfection reagent (LipofectAMINE 2000; manufactured by GIBCO BRL) and the plasmid pEF-BOS-dhfr-HORK3 (8 μg). As a control, a gene transfection was carried out by using the plasmid pEF-BOS-dhfr (i.e., an empty vector without the HORK3 gene), instead of the plasmid pEF-BOS-dhfr-HORK3.
After 24 hours from the gene transfection procedure, the transfected cells were taken and suspended in an αMEM (without nucleic acids) medium containing 100 nmol/L methotrexate (a competitive inhibitor of DHFR; manufactured by Wako Pure Chemical Industries). Each suspension was gradually diluted and reseeded on each 10 cm-petri dish. Colonies which appeared after 2 weeks were individually taken, and used as a CHO cell expressing the HORK3 protein or a control CHO cell transfected with the empty vector in the following experiment.
The CHO cells expressing the HORK3 protein or the CHO cells transfected with the empty vector were seeded on a 24-well plate (1×10^5 cells/well). […]
The amount of cAMP produced in each cell under each condition was measured by using the cAMP-EIA system in accordance with a protocol attached thereto. […]

In experiment [7] the target is T1, HORK3 protein (human ADP receptor P2TAC). Nature of the experiment: Increase in intracellular Ca2+ concentration in C6-15 cell co-expressing HORK3 protein and Gqi (FLIPR). The settings on record: C6-15 cells transfected with pEF-BOS-dhfr-HORK3 and pEF-BOS-Gqi; peak values, Logistic regression. Set-up: expressed in transfected cells; host or cells: C6-15 rat glioma cells, transient co-transfection of pEF-BOS-dhfr-HORK3 and pEF-BOS-Gqi. Format: cell-based. How it is done: When most purines such as ADP, 2MeSADP (2-methylthio-ADP), or the like are added to a cell, the increase in intracellular Ca^2+ via an endogenous cellular membrane receptor is observed. […] In the present example, the C6-15 cell was used to express the HORK3 protein.
Further, the plasmid pEF-BOS-dhfr-HORK3 obtained in Example 1 was used as an expression plasmid to be used for expressing the HORK3 protein. […]
A time course of the change in the intracellular Ca^2+ concentration was measured by using FLIPR (manufactured by Molecular Device). More particularly, after 10 seconds from the beginning of measurement, 2MeSADP or ADP was added to wells to a final concentration of 3×10^−5 mol/L to 1×10^−12 mol/L. After the addition, each fluorescence intensity was measured at an interval of 1 second for 50 seconds, and then at an interval of 6 seconds for 4 minutes.
The change of the intracellular Ca^2+ concentration by 2MeSADP or ADP in the cells to which the plasmid pEF-BOS-dhfr-HORK3 and the plasmid pEF-BOS-Gqi had been transfected was measured, each peak value in various concentrations of 2MeSADP or ADP was plotted, and then the dependency upon the concentration was analyzed by using a Logistic regression method.

T1 sequence (Q9H244 whole entry): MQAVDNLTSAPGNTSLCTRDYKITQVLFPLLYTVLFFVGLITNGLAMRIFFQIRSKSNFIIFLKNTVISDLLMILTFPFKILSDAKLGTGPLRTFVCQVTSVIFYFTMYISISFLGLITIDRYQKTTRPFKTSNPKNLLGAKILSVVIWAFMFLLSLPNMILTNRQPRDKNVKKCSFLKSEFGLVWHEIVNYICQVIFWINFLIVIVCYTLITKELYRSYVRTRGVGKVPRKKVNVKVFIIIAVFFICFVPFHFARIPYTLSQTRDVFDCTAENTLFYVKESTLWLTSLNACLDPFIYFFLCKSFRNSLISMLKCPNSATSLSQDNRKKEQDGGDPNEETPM

Take `CSCCNc1nc(SCCC(F)(F)F)nc2c1ncn2[C@@H]1O[C@H](COP(=O)(O)OP(=O)(O)C(Cl)(Cl)P(=O)(O)O)[C@@H](O)[C@H]1O` [AR-C69931MX, N6-[2-methylthioethyl]-2-[3,3,3-trifluoropropylthio]-5′-ade nylic acid, monoanhydride with dichloromethylenebiphosphonic acid]: the “inhibition of ADP-induced platelet aggregation” value in experiment [1] was “inhibited the ADP-induced platelet aggregation concentration-dependently”.

For `CSc1nc(N)c2ncn([C@@H]3O[C@H](COP(=O)(O)O)[C@@H](O)[C@H]3O)c2n1` [2MeSAMP, 2-methylthio-adenosine monophosphate], the IC50 in experiment [2] (1 μmol/L forskolin and 10 nmol/L 2MeSADP, read-out: IC50, inhibitory effect on the suppression by 2MeSADP in the amount of cAMP produced by the forskolin stimulus) was determined as 5000 nM; in experiment [3] it was 4900 nM. Further, the “inhibition of ADP-induced platelet aggregation” value in experiment [1] is “inhibited the ADP-induced platelet aggregation concentration-dependently”.

For `Nc1ncnc2c1ncn2[C@@H]1O[C@H](COP(=O)(O)OP(=O)(O)O)[C@@H](O)[C@H]1O` [ADP, adenosine 5′-diphosphate], the “change of the intracellular Ca2+ concentration” value in experiment [4] is listed as “not observed”. Also, the figures for the EC50 in experiment [5], in experiment [2] and in experiment [7] were 35 nM, 42 nM and 220 nM, respectively. The “changes in the amount of cAMP produced by the forskolin stimulus” value in experiment [6] is given as “no changes”.

With `CSc1nc(N)c2ncn([C@@H]3O[C@H](COP(=O)(O)OP(=O)(O)O)[C@@H](O)[C@H]3O)c2n1` [2MeSADP, 2-methylthio-ADP], the “change of the intracellular Ca2+ concentration” value in experiment [4] is “not observed”. Further, the EC50 in experiment [5] was 0.07 nM; in experiment [2], 0.08 nM; in experiment [7] it was 5.4 nM. Further, in experiment [6], the “changes in the amount of cAMP produced by the forskolin stimulus” value is “no changes”.

A word on the IC50: it is the concentration that inhibits the measured activity by half. By EC50 is commonly meant the concentration that produces a half-maximal response.
